# Laboratory results as given in US20050032221A1, “Dominant negative variants of methionine aminopeptidase 2 (MetAP2) and clinical uses thereof” (priority 2001, published 2005).
# Assays:
# peptide substrate (MGMM) = assay: MetAP activity assay of immunopurified HA-tagged yeast MetAP2 with Met-Gly-Met-Met; format: biochemical; details: immunopurified HA-tagged enzyme from map1Δ
# Protocol: […]. Approximately 2 μg of purified wild-type MetAP2 (WT) and MetAP2 (H174A) was separated on a 10% SDS-PAGE gel and visualized with coomassie blue staining. Specific activity for the wild-type MetAP2 was 11±0.5 U/mg.
# The purification of HA-tagged wild-type and mutant yeast MetAP2 from a yeast map1Δ strain (Klinkenberg et al., Arch. Biochem. Biophys. 347:193-200, 1997) was performed as previously described (Li and Chang, 1995) with slight modifications. A 1-liter yeast culture was grown aerobically at 30° C. in SG/Leu^− medium. Cells were collected at an OD600˜1-2 by centrifugation at 1500×g for 5 min. The pellet was rinsed with buffer XL (10 mM Hepes, pH 7.4; 1.5 mM MgCl2, 10% Glycerol [v/v]) plus 100 mM NaCl and fresh protease inhibitors (1 μg/ml aprotinin, 1 μg/ml leupeptin, 0.7 μg/ml pepstatin A, 1 mM phenylmethylsulfonyl fluoride). Cells were disrupted by vortexing (5 cycles of 1 min vortexing, 1 min on ice) with 0.5-mm acid-washed glass beads (Biospec Products, Inc.,). The lysate was then cleared at 10,000×g for 20 min at 4° C. Cleared lysate was applied to a Protein-Sepharose G column (Pharmacia) previously rinsed and pre-equilibrated with buffer XL and an anti-hemagglutinin epitope ([…]; SEQ ID NO:23) monoclonal antibody (BabCO). After loading, the column was washed with buffer XL until OD280<0.01. […]
# yeast map1Δ strain = assay: Yeast growth assay, map1Δ, expression under GAL1 promoter; format: cell-based, yeast (S. cerevisiae)
# Protocol: A haploid yeast map1Δ strain was transformed to leucine prototrophy with p425GAL1/MAP2 wild-type (WT), p425GAL1/map2 (H174A), or p425GAL1 vector alone (V). Each strain was grown to mid-logarithmic phase at 30° C. in minimal synthetic raffinose medium lacking leucine. Approximately 2×10^5 cells (ABS600) were then streaked onto minimal synthetic plates lacking leucine and supplemented with (A) glucose or (B) galactose. Plates were incubated for 4 days at 30° C.
# A haploid yeast map1Δ strain was transformed to leucine prototrophy with p425GAL1/MAP2 wild-type (WT), p425GAL1/map2 ([…]), p425GAL1/map2 (Δ2-57/H174A) or p425GAL1 vector alone (V). Each strain was grown to mid-logarithmic phase at 30° C. in minimal synthetic raffinose medium lacking leucine. […]
# For relative growth comparison, strains were grown to mid-logarithmic phase in 5 ml of 2% raffinose minimal media lacking leucine and ˜2×10^5 cells (ABS600) were streaked onto SD/Leu^− or SG/Leu^− plates, then incubated for 4 days at 30° C. For quantitative comparison, a growth curve was obtained (FIG. 4). […] The ABS600 of each 1 mL culture was measured and diluted to an ABS600 of 0.2 in 5 mL of SG/Leu^−. Each 5 mL culture was then grown aerobically at 30° C. and the ABS600 was measured in triplicate at one-hour intervals.
# Chain of peptide substrate (MGMM) (P38174 whole entry H174A): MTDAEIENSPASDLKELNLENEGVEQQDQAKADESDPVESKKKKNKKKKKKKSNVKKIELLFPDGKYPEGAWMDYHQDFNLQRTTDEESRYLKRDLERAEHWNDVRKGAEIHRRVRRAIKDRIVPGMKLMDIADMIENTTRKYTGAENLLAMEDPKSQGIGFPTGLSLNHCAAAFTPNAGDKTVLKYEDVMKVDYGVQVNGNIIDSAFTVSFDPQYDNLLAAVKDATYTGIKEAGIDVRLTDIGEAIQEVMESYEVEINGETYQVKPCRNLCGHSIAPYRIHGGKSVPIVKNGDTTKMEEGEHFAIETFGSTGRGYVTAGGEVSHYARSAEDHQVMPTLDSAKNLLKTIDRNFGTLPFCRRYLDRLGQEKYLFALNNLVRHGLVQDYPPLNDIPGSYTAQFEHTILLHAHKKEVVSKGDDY
substance,measurement,setting,value
"MetAP2 (H174A): variant yeast MetAP2 with His174 replaced by alanine, N-terminal HA tag; dominant negative (SEQ ID NO:8)",activity against a peptide substrate (MGMM) in vitro,peptide substrate (MGMM),no detectable activity
same,doubling time,"yeast map1Δ strain; SG/Leu- medium, 30° C.",9.3 ± 0.6 h
same,colony size / growth relative to map1Δ with vector alone,"yeast map1Δ strain; galactose plates, 4 days at 30° C.",smaller colonies
